Tests used:
[1] = Hydrolytic stability of HSS in water at pH 7, 8, 9 (GC purity of recovered solid); format: physicochemical
Experimental: A series of hydrolytic stability tests were conducted on the compound of Example 1, HSS, as follows
pH7: 2.5 g of samples of HSS were placed in 100 ml round bottom flasks and 50 ml of double distilled water (pH 7) added to each. […] Thereafter each sample was filtered and the solids dried.
pH 8: 2.5 g of samples of HSS were placed in 100 ml round bottom flasks and 50 ml of double distilled water which had been adjusted to pH 8 using 0.01N NaOH solution added to each. […] Thereafter each sample was filtered and the solids dried.
pH 9: 2.5 g of samples of HSS were placed in 100 ml round bottom flasks and 50 ml of double distilled water which had been adjusted to pH 9 using 0.1N NaOH solution added to each. […] Thereafter each sample was filtered and the solids dried.
Each dried sample was analyzed by gas chromatography using an HP-5, 15 m, 0.53 mm id, capillary column with following set-up and test parameters: • Injection temperature: 250° C. • Oven temp: 50° C. (2 min), 10° C. to 260° C. (20 min) • Detector: FID • Detector temp: 260° C. • Carrier gas: Nitrogen • Column flow: 3.0 ml/min • Split ratio: 5:1 • Injection Volume: 1 micro liter • Sample concentration: 100 mg/ml in Methanol
The initial purity of the HSS used to make Samples A through F was 98.9% as determined by the aforementioned GC procedure.

[2] = Photostabilization of water-soluble dyes under solar simulated light; conditions: 0.05% stabilizer, FD&C Yellow No 5 or Red No 40, solar simulated light ~40 hours
Experimental: The stabilizer compound Synoxyl™ HSS according to Example 1 was added to the two dye compositions of Table 9, one containing Yellow No 5 and the other Red No 40, in order to evaluate its ability to reduce the extent of color fading resulting from their exposure to solar simulated light. In both formulations without the Synoxyl™ HSS, visible and marked color fading was noted following just 2 hours of light exposure.

[3] = Stabilization of colored shampoo under fluorescent light (Delta E); conditions: 0.4 g HSS in 120 g shampoo, ambient temperature, 4 weeks
Experimental: The stabilizer compound according to Example 1, Synoxyl™ HSS, was added to a commercial shampoo formulation in order to evaluate its ability to reduce the amount of dye fading following exposure to fluorescent lighting. The sample was prepared by dissolving 0.4 g of HSS in 5 ml of ethanol and then adding the solution to 120 g of Suave® Natural Fresh Mountain Strawberry Shampoo with agitation and agitated for 15 minutes. A sample of the unmodified shampoo and the modified shampoo are then placed into 20 ml glass scintillation vials. Both sets of vials were weathered under fluorescent light aging at ambient temperature for 4 weeks. The L*a*b coordinates before and after exposure are measured using X-Rite 938 Spectro-densitometer. Color change is expressed as Delta E (ΔE) which is calculated by the formula: ΔE=[(ΔL*)^2+(Δa*)^2+(Δb*)^2]^1/2
Following the 4 week exposure the change in color, Delta E, was 21.6 for the unmodified shampoo and 12.3 for the modified shampoo.

[4] = Photostability of sunscreen formulation under sun simulator
Experimental: (§1) Samples of each solution were prepared as ultrathin films between two quartz plates so as to obtain a minimum of 90% light transmission over the entire spectrum range of non absorbing chromophores. For example, ingredients which absorb only in the UV range were tested in formulation to obtain a minimum of 90% light transmission over the visible range. Each sample was then irradiated under sun simulator (754 W/m^2, 2 MED/h, UV dose from 20 to 100 Joules/cm^2) for various durations and light absorption spectra recorded for each sample at given times. The maximal absorption band λmax of each solution was determined before and after irradiation. The amount of the photosensitive materials remaining in solution after irradiation was calculated as the ratio of their two maximal absorptions.
Three samples of this were taken for photostability testing according to the method of Example 6 above. The first sample, the Control, was not modified whereas the two remaining samples were modified by incorporating therein 2% of the compound of Example 1, HSS, and 4% octocrylene, respectively. The three formulations were prepared by first preparing each of Phase A1 and A2 and then dispersing Phase A2 in Phase A1 with agitation and heating to 75 C. Phase B was prepared and heated to 75° C. Phase B is then combined with the Phase A mixture with continuous stirring. The combination was subsequently homogenized for 2-3 minutes, and the batch cooled to 45° C. Phases C and were separately prepared and then mixed with the cooled batch until uniform.
As with Example 6, each was exposed to irradiation for various durations and the photostability tested. As evidenced from the results shown in Table 7, the stabilizer compound of the present invention performed markedly better than that of the conventional photostabilizer in the formulated product.

[5] = Stability of HSS in the presence of iron and copper ions (UV absorbance at 319 nm); format: physicochemical; conditions: acetate buffer pH 6.5/ethanol, room temperature
Experimental: A base buffer solution was prepared by dissolving 13.608 g of sodium acetate in 1000 ml water and then adjusting the pH to 6.5 with acetic acid to form a 0.1 M acetate solution and then combining 75 parts by weight of this solution with 25 parts by weight ethanol.
A copper sulfate solution was prepared by dissolving 24.968 mg of copper sulfate (CuSO4.5H2O) in 100 ml of the base buffer solution.
A ferric sulfate solution was prepared by dissolving 16.22 mg of […] in 100 ml of the base buffer solution.
Finally a 100 μM test solution of HSS was prepared by dissolving 27.8 mg of HSS in 10 ml of the base buffer solution and then diluting 0.1 ml of this solution to 10 ml with additional base buffer solution.
Two test solutions were prepared as follows:
Copper Stability: 0.1 ml of the 100 μM solution of HSS was combined with 0.1 ml of the 10 μM CuSO4 solution in a 10 ml volumetric flask and additional base buffer solution added to make up to volume (to 10 ml). […]
The two test solutions and a sample of the HSS solution were then evaluated to assess what, if any, auto-oxidation of the HSS occurred in the presence of Cu^2+ and Fe^3+ ions. Stability or instability was evaluated by monitoring the absorbance at 319 nm for HSS at room temperature using a Shimadzu spectrophotometer.

[6] = Photostabilization of avobenzone in ethanol test solution under sun simulator
Experimental: A comparative photostabilization study was conducted comparing the photostabilization efficacy of the compound of Example 1, HSS, and the compound of Example 3 (Compound 3) with Octocrylene and Oxynex® ST in the stabilization of avobenzone. Samples for evaluation were prepared as follows:
Solutions in ethanol are prepared at respective concentrations of photosensitive materials and photostabilizer (typically 1:1 to 1:5 weight ratio). A base test solution of 3% Avobenzone+5% Octyl salicylate +10% Homoslate in Ethanol (the “Test Solution”) was made. Seven additional solutions were prepared by adding 2% Synoxyl™ HSS, 4% Synoxyl™ HSS, 4% Compound 3, 2% Octocrylene, 4% Octocrylene, 2% Oxynex® ST, and 2% dehydrozingerone methyl ether, respectively, to seven aliquots of the Test Solution.
as §1

[7] = cited from earlier work
[8] = 2% stabilizer in Test Solution (3% Avobenzone), UV dose 0 Joules/cm^2
[9] = 2% stabilizer in Test Solution (3% Avobenzone), UV dose 20 Joules/cm^2
[10] = 2% stabilizer in Test Solution (3% Avobenzone), UV dose 40 Joules/cm^2
[11] = 2% stabilizer in Test Solution (3% Avobenzone), UV dose 60 Joules/cm^2
[12] = 2% stabilizer in Test Solution (3% Avobenzone), UV dose 80 Joules/cm^2
[13] = 2% stabilizer in Test Solution (3% Avobenzone), UV dose 100 Joules/cm^2
[14] = 4% stabilizer in Test Solution (3% Avobenzone), UV dose 0 Joules/cm^2
[15] = 4% stabilizer in Test Solution (3% Avobenzone), UV dose 20 Joules/cm^2
[16] = 4% stabilizer in Test Solution (3% Avobenzone), UV dose 40 Joules/cm^2
[17] = 4% stabilizer in Test Solution (3% Avobenzone), UV dose 60 Joules/cm^2
[18] = 4% stabilizer in Test Solution (3% Avobenzone), UV dose 80 Joules/cm^2
[19] = 4% stabilizer in Test Solution (3% Avobenzone), UV dose 100 Joules/cm^2

COc1cc(C=C(C(C)=O)C(C)=O)cc(OC)c1OC [HSS, 3-(3,4,5-trimethoxybenzylidene)-2,4-pentanedione]
hydrolytic stability ([1]; pH 7, 8, and 9 at 40° C. and at 60° C. for at least 8 hrs): stable
GC purity (Area %) ([1]; pH 7, 40° C., 4 h): 98.9 Area %
GC purity (Area %) ([1]; pH 7, 40° C., 8 h): 99.1 Area %
GC purity (Area %) ([1]; pH 7, 60° C., 4 h): 98.6 Area %
GC purity (Area %) ([1]; pH 7, 60° C., 8 h): 99.0 Area %
GC purity (Area %) ([1]; pH 7, RT (~27° C.), 4 h): 98.8 Area %
GC purity (Area %) ([1]; pH 7, RT (~27° C.), 8 h): 99.0 Area %
GC purity (Area %) ([1]; pH 8, 40° C., 4 h): 98.9 Area %
GC purity (Area %) ([1]; pH 8, 40° C., 8 h): 99.1 Area %
GC purity (Area %) ([1]; pH 8, 60° C., 4 h): 99.2 Area %
GC purity (Area %) ([1]; pH 8, 60° C., 8 h): 99.0 Area %
GC purity (Area %) ([1]; pH 8, RT (~27° C.), 4 h): 98.7 Area %
GC purity (Area %) ([1]; pH 8, RT (~27° C.), 8 h): 99.2 Area %
GC purity (Area %) ([1]; pH 9, 40° C., 4 h): 99.0 Area %
GC purity (Area %) ([1]; pH 9, 40° C., 8 h): 98.9 Area %
GC purity (Area %) ([1]; pH 9, 60° C., 4 h): 99.1 Area %
GC purity (Area %) ([1]; pH 9, 60° C., 8 h): 98.8 Area %
GC purity (Area %) ([1]; pH 9, RT (~27° C.), 4 h): 98.8 Area %
GC purity (Area %) ([1]; pH 9, RT (~27° C.), 8 h): 98.8 Area %
color fading of dye formulation [2]: failed to manifest color fading
change in color, Delta E [3]: 12.3
photostability of sunscreen formulation (% remaining) ([4]; 2% stabilizer in sunscreen with 2% butyl methoxydibenzoylmethane, UV dose 0 Joules/cm^2): 100%
photostability of sunscreen formulation (% remaining) ([4]; 2% stabilizer in sunscreen with 2% butyl methoxydibenzoylmethane, UV dose 20 Joules/cm^2): 96%
photostability of sunscreen formulation (% remaining) ([4]; 2% stabilizer in sunscreen with 2% butyl methoxydibenzoylmethane, UV dose 40 Joules/cm^2): 92%
photostability of sunscreen formulation (% remaining) ([4]; 2% stabilizer in sunscreen with 2% butyl methoxydibenzoylmethane, UV dose 60 Joules/cm^2): 88%
stability (auto-oxidation) in the presence of iron and copper ions [5]: stable irrespective of the presence of iron and copper ions
% remaining [6, 8]: 100%
% remaining [6, 9]: 96%
% remaining [6, 10]: 90%
% remaining [6, 11]: 84%
% remaining [6, 12]: 77%
% remaining [6, 13]: 70%
% remaining [6, 14]: 100%
% remaining [6, 15]: 96%
% remaining [6, 16]: 90%
% remaining [6, 17]: 84%
% remaining [6, 18]: 80%
% remaining [6, 19]: 76%

CCCCC(CC)COC(=O)C(C#N)=C(c1ccccc1)c1ccccc1 (stereo not drawn) [Octocrylene]
photostability of sunscreen formulation (% remaining) ([4]; 4% stabilizer in sunscreen with 2% butyl methoxydibenzoylmethane, UV dose 0 Joules/cm^2): 100%
photostability of sunscreen formulation (% remaining) ([4]; 4% stabilizer in sunscreen with 2% butyl methoxydibenzoylmethane, UV dose 20 Joules/cm^2): 94%
photostability of sunscreen formulation (% remaining) ([4]; 4% stabilizer in sunscreen with 2% butyl methoxydibenzoylmethane, UV dose 40 Joules/cm^2): 89%
photostability of sunscreen formulation (% remaining) ([4]; 4% stabilizer in sunscreen with 2% butyl methoxydibenzoylmethane, UV dose 60 Joules/cm^2): 82%
% remaining [6, 8]: 100%
% remaining [6, 9]: 92%
% remaining [6, 10]: 80%
% remaining [6, 11]: 68%
% remaining [6, 12]: 64%
% remaining [6, 13]: 58%
% remaining [6, 14]: 100%
% remaining [6, 15]: 94%
% remaining [6, 16]: 83%
% remaining [6, 17]: 73%
% remaining [6, 18]: 67%
% remaining [6, 19]: 60%

CC1=C(/C=C/C(C)=C/C=C/C(C)=C\C(=O)O)C(C)(C)CCC1 [isotretinoin, 13-cis-retinoic acid]
solubility in diethylhexyl diester of 2,6-naphthalene-dicarboxylic acid [7]: approximately 6.7 mg/ml

CC1=C(/C=C/C(C)=C/C=C/C(C)=C/C(=O)O)C(C)(C)CCC1 [tretinoin, all-trans-retinoic acid]
solubility in diethylhexyl diester of 2,6-naphthalene-dicarboxylic acid [7]: approximately 5.6 mg/ml
solubility in water ([7]; water): practically insoluble

Reference: patent publication US8617528B2, “Compositions and methods for stabilizing ingredients using 2,4-pentanedione compounds” (Sytheon Ltd., priority 2010, dated 2013)
